# Tests used:
# [1] = test system: Male Zucker Diabetic Fatty (ZDF) rats (ZDF/Crl-Lepr^fa); experiment: HbA1c on day 37 of treatment in ZDF rats; type: in vivo, rat; conditions: overnight fasted
# Experimental: All experimental protocols concerning the use of laboratory animals are reviewed by a federal Ethics Committee and approved by governmental authorities. Male Zucker Diabetic Fatty (ZDF) rats (ZDF/Crl-Lepr^fa) at the age of 12 weeks are treated for 5 weeks with the pyrazole-O-glucoside (16), i.e. 4-(2-fluoro-4-methoxy-benzyl)-1-isopropyl-5-methyl-3-β-D-glucopyranos-1-yloxy-1H-pyrazole, at a dose of 10 mg/kg administered twice daily in the morning and evening, or with metformin at a dose of 200 mg/kg once daily in the morning, or with the combination of the pyrazole-O-glucoside and metformin at the same dose regimens. Vehicle for administration is 0.5% aqueous hydroxyethylcellulose containing 0.015% Polysorbat 80. Control animals are dosed twice daily with vehicle alone. Blood samples are obtained by tail bleed. Blood glucose is measured with a glucometer and HbA1c is measured with an automated analyzer (Cobas Integra 400, Roche). Prior to start of treatment, the animals are randomized for blood glucose and HbA1c (n=10/group).
# On day 37 of treatment, HbA1c is measured pre-dose in tail blood obtained from overnight fasted animals. The data are presented as mean±SEM.
# [2] = test system: Male Zucker Diabetic Fatty (ZDF) rats (ZDF/Crl-Lepr^fa); experiment: Blood glucose AUC 0-7 h on day 20 of treatment in ZDF rats; type: in vivo, rat
# Experimental: All experimental protocols concerning the use of laboratory animals are reviewed by a federal Ethics Committee and approved by governmental authorities. […] Control animals are dosed twice daily with vehicle alone. Blood samples are obtained by tail bleed. Blood glucose is measured with a glucometer and HbA1c is measured with an automated analyzer (Cobas Integra 400, Roche). Prior to start of treatment, the animals are randomized for blood glucose and HbA1c (n=10/group). On day 20 of treatment, blood glucose is measured in tail blood pre-dose, 0.5 h, 1.5 h, 3 h, and 7 h after dosing. Blood glucose is quantified by calculating the total glucose AUC 0-7 h. The data are presented as mean±SEM. The two-sided unpaired Student t-test is used for statistical comparison of the control group and the active groups.
# the diabetic = conditions: metformin on its own; cited from earlier work
SMILES,reduction of HbA1c (numerically) versus control ([1]; 10 mg/kg twice daily) [%],reduction of total glucose AUC 0-7 h versus control ([2]; 10 mg/kg twice daily) [%],average improvement in the HbA1c value (the diabetic),reduction of HbA1c (numerically) versus control ([1]; metformin 200 mg/kg once daily) [%],reduction of total glucose AUC 0-7 h versus control ([2]; metformin 200 mg/kg once daily) [%]
"COc1ccc(Cc2c(O[C@@H]3O[C@H](CO)[C@@H](O)[C@H](O)[C@H]3O)nn(C(C)C)c2C)c(F)c1 [(16), 4-(2-fluoro-4-methoxy-benzyl)-1-isopropyl-5-methyl-3-β-D-glucopyranos-1-yloxy-1H-pyrazole]",2.1,38,,,
"CN(C)C(=N)N=C(N)N [Metformin, metformin]",,,1.0-1.5%,0.3,11

# — patent US20100317575A1, “PHARMACEUTICAL COMPOSITION COMPRISING A PYRAZOLE-O-GLUCOSIDE DERIVATIVE” (BOEHRINGER INGELHEIM INTERNATIONAL GMBH, priority 2007, published 2010)
